Measured values: paper PMC11327230, “Scalability study on [^133La]LaCl3 production with a focus on potential clinical applications” (EJNMMI Radiopharmacy and Chemistry, 2024)

What was measured:
[1] = 200 MBq; ref Afshar-Oromieh et al. [2016]; cited from earlier work
[2] = Stability of ^133La-PSMA radioconjugates in human serum, by radio-TLC; assay type: in vitro ADME; details: for stability in serum: ^133La-radioconjugate, up to / after 24 h; for HS stability 1 h / HS stability 4 h / HS stability 24 h: human serum/PBS pH 7, 37 °C, tested thrice
Description: Apparent molar activity (AMA) was quantified by titration with the macropa chelator in combination with radio-TLC. 3–10 µL [^133La]LaCl3 (4–7 MBq, approximately 10 MBq at EOB) were added to a buffered solution (ammonium acetate 200 mM, pH 6, total volume 100 µL) containing different chelator concentrations: 0.20 µM, 0.40 µM, 0.80 µM and 1.60 µM. These solutions were mixed at 500 rpm for 15 min at room temperature. The formed [^133La]La-macropa complex was analyzed using silica gel coated aluminum plates and developed with 50 mM EDTA as eluent. While the free lanthanum runs to the front, the complex remains at the start.
To assess the serum stability of both radiolabeled compounds, 75 µL of the ^133La-PSMA radioconjugates, accounting for ca. 50 MBq ^133La, were added to 75 µL of PBS buffer pH 7 and 150 µL of human serum and mixed at 500 rpm for 24 h at 37 °C. Silica gel plates were spotted after 1 h, 4 h and 24 h to evaluate the evolution of the complex stability. Each ^133La-PSMA radioligand and its molar activity was tested thrice.

[3] = as above; assay type: in vitro ADME; details: after 24 h in human serum, radio-TLC (Fig. 11)

| stability in serum ([2]; molar activity not given) | HS stability 1 h ([2]; molar activity 40 GBq/µmol) | HS stability 1 h ([2]; molar activity 80 GBq/µmol) | HS stability 4 h ([2]; molar activity 40 GBq/µmol) | HS stability 4 h ([2]; molar activity 80 GBq/µmol) | HS stability 24 h ([2]; molar activity 40 GBq/µmol) | HS stability 24 h ([2]; molar activity 80 GBq/µmol) | stability in serum ([2]; molar activity not stated in the sentence) | stability in serum ([2]; molar activity not stated in the sentence, listed as mcp-M-PSMA) | free [^133Ba]Ba^2+ as share of the total radioactivity [3] | Structure (SMILES) | effective dose [1] |
| --- | --- | --- | --- | --- | --- | --- | --- | --- | --- | --- | --- |
| – | – | – | – | – | – | – | – | – | – | O=C([O-])CN(CCN(CC(=O)[O-])Cc1cc(CCC(=O)NCCCCCC(=O)NCCCC[C@H](NC(=O)N[C@@H](CCC(=O)O)C(=O)O)C(=O)O)ccc1[O-])Cc1cc(CCC(=O)O)ccc1[O-].[68Ga+3].[OH3+] [[^68Ga]Ga-PSMA-11] | 4.7 mSv |
| > 98.5 ± 0.3% | 99.37 ± 0.12% | 99.57 ± 0.12% | 99.40 ± 0.01% | 99.60 ± 0.08% | 97.37 ± 0.17% | 98.5 ± 0.3% | – | – | – | O=C(O)CC[C@H](NC(=O)N[C@@H](CCCCNC(=O)[C@H](Cc1ccc2ccccc2c1)NC(=O)[C@H]1CC[C@H](CNC(=O)CN2CCN(CC(=O)O)CCN(CC(=O)O)CCN(CC(=O)O)CC2)CC1)C(=O)O)C(=O)O [[^133La]La-PSMA-617] | – |
| – | 100 ± 0% | 99.80 ± 0.01% | 100 ± 0% | 99.83 ± 0.08% | 99.57 ± 0.25% | 99.20 ± 0.08% | > 99% | > 99.20 ± 0.08% | – | O=C(O)CCC(NC(=O)NC(CCCCNC(=O)C(Cc1ccc2ccccc2c1)NC(=O)C1CCC(CNC(=O)CCCCn2cc(COc3cc(CN4CCOCCOCCN(Cc5cccc(C(=O)O)n5)CCOCCOCC4)nc(C(=O)O)c3)nn2)CC1)C(=O)O)C(=O)O (centres unmarked) [[^133La]La-mcp-M-PSMA] | – |
| – | – | – | – | – | – | – | – | – | 1.1% | [133La+3].[Cl-].[Cl-].[Cl-] [[^133La]LaCl3] | – |
